{
  "source": "ChEMBL document CHEMBL5518232",
  "about": "“Discovery of New Tricyclic Oxime Sampangine Derivatives as Potent Antifungal Agents for the Treatment of Cryptococcosis and Candidiasis” (J Med Chem, 2024)",
  "key": {"Candida albicans [1]": {"test_system": "Candida albicans", "experiment": "Antifungal activity against Candida albicans SC5314 assessed as reduction in fungal growth incubated for 48 hrs by liquid based microdilution method", "assay_type": "functional"}, "Candida albicans [2]": {"test_system": "Candida albicans", "experiment": "Antifungal activity against Candida albicans 0304103 assessed as reduction in fungal growth incubated for 48 hrs by liquid based microdilution method", "assay_type": "functional"}, "Candida tropicalis": {"test_system": "Candida tropicalis", "experiment": "Antifungal activity against Candida tropicalis 10186 assessed as reduction in fungal growth incubated for 48 hrs by liquid based microdilution method", "assay_type": "functional"}, "Nakaseomyces glabratus": {"test_system": "Nakaseomyces glabratus", "experiment": "Antifungal activity against Candida glabrata 9073 assessed as reduction in fungal growth incubated for 48 hrs by liquid based microdilution method", "assay_type": "functional"}, "Cryptococcus neoformans [3]": {"test_system": "Cryptococcus neoformans", "experiment": "Antifungal activity against Cryptococcus neoformans H99 assessed as reduction in fungal growth incubated for 72 hrs by liquid based microdilution method", "assay_type": "functional"}, "Cryptococcus neoformans [4]": {"test_system": "Cryptococcus neoformans", "experiment": "Antifungal activity against Cryptococcus neoformans ATCC 34877 assessed as reduction in fungal growth incubated for 72 hrs by liquid based microdilution method", "assay_type": "functional"}, "[5]": {"experiment": "Antifungal activity against Cryptococcus gattii VGI ATCC 14116 assessed as reduction in fungal growth incubated for 72 hrs by liquid based microdilution method", "assay_type": "functional"}, "Candida albicans [6]": {"test_system": "Candida albicans", "experiment": "Synergistic antifungal activity against Candida albicans 0304103 assessed as inhibition of fungal growth incubated for 48 hrs in presence of (Z)-8-(hydroxyimino)-3-methylthieno[3',2':4,5]benzo[1,2-d]isoxazol-4(8H)-one by checkerboard microdilution assay", "assay_type": "functional"}, "Candida albicans [7]": {"test_system": "Candida albicans", "experiment": "Synergistic antifungal activity against Candida albicans 0304103 assessed as inhibition of fungal growth incubated for 48 hrs in presence of ((Z)-8-(methoxyimino)-3-methylthieno[3',2':4,5]benzo[1,2-d]isoxazol-4(8H)-one by checkerboard microdilution assay", "assay_type": "functional"}, "Candida albicans [8]": {"test_system": "Candida albicans", "experiment": "Synergistic antifungal activity against Candida albicans 0304103 assessed as inhibition of fungal growth incubated for 48 hrs in presence of (Z)-8-(ethoxyimino)-3-methylthieno[3',2':4,5]benzo[1,2-d]isoxazol-4(8H)-one by checkerboard microdilution assay", "assay_type": "functional"}, "Candida albicans [9]": {"test_system": "Candida albicans", "experiment": "Synergistic antifungal activity against Candida albicans 0304103 assessed as inhibition of fungal growth incubated for 48 hrs in presence of (Z)-8-(isopropoxyimino)-3-methylthieno[3',2':4,5]benzo[1,2-d]isoxazol-4(8H)-one by checkerboard microdilution assay", "assay_type": "functional"}, "Candida albicans [10]": {"test_system": "Candida albicans", "experiment": "Synergistic antifungal activity against Candida albicans 0304103 assessed as inhibition of fungal growth incubated for 48 hrs in presence of (Z)-3-ethyl-8-(methoxyimino)thieno[3',2':4,5]benzo[1,2-d]isoxazol-4(8H)-one by checkerboard microdilution assay", "assay_type": "functional"}, "Candida albicans [11]": {"test_system": "Candida albicans", "experiment": "Synergistic antifungal activity against Candida albicans 0304103 assessed as inhibition of fungal growth incubated for 48 hrs in presence of (Z)-8-(methoxyimino)-3-propylthieno[3',2':4,5]benzo[1,2-d]isoxazol-4(8H)-one by checkerboard microdilution assay", "assay_type": "functional"}, "Candida albicans [12]": {"test_system": "Candida albicans", "experiment": "Synergistic antifungal activity against Candida albicans 0304103 assessed as inhibition of fungal growth incubated for 48 hrs in presence of (4Z,8Z)-benzo[1,2-b:4,5-b']dithiophene-4,8-dione O,O-dimethyl dioxime by checkerboard microdilution assay", "assay_type": "functional"}, "Candida albicans [13]": {"test_system": "Candida albicans", "experiment": "Synergistic antifungal activity against Candida albicans 0304103 assessed as inhibition of fungal growth incubated for 48 hrs in presence of (Z)-8-(methoxyimino)benzo[1,2-b:4,5-b']dithiophen-4(8H)-one by checkerboard microdilution assay", "assay_type": "functional"}, "Candida albicans [14]": {"test_system": "Candida albicans", "experiment": "Synergistic antifungal activity against Candida albicans 0304103 assessed as inhibition of fungal growth incubated for 48 hrs in presence of (Z)-9-(hydroxyimino)-3-methylnaphtho[2,3-d]isoxazol-4(9H)-one by checkerboard microdilution assay", "assay_type": "functional"}, "Candida albicans [15]": {"test_system": "Candida albicans", "experiment": "Synergistic antifungal activity against Candida albicans 0304103 assessed as inhibition of fungal growth incubated for 48 hrs in presence of (Z)-9-(methoxyimino)-3-methylnaphtho[2,3-d]isoxazol-4(9H)-one by checkerboard microdilution assay", "assay_type": "functional"}, "Candida albicans [16]": {"test_system": "Candida albicans", "experiment": "Synergistic antifungal activity against Candida albicans 0304103 assessed as inhibition of fungal growth incubated for 48 hrs in presence of (Z)-9-(ethoxyimino)-3-methylnaphtho[2,3-d]isoxazol-4(9H)-one by checkerboard microdilution assay", "assay_type": "functional"}, "Candida albicans [17]": {"test_system": "Candida albicans", "experiment": "Synergistic antifungal activity against Candida albicans 0304103 assessed as inhibition of fungal growth incubated for 48 hrs in presence of (Z)-8-(methoxyimino)-3-methylbenzofuro[6,5-d]isoxazol-4(8H)-one by checkerboard microdilution assay", "assay_type": "functional"}, "Cryptococcus neoformans [18]": {"test_system": "Cryptococcus neoformans", "experiment": "Inhibition of biofilm formation in Cryptococcus neoformans H99 at 64 ug/ml incubated for 24 hrs by microplate based analysis relative to control", "assay_type": "functional"}, "Candida albicans [19]": {"test_system": "Candida albicans", "experiment": "Inhibition of biofilm formation in Candida albicans 0304103 at 2 ug/ml incubated for 32 hrs by microplate based analysis", "assay_type": "functional, organism-based", "conditions": "dose 2.0 µg/ml"}, "Candida albicans [20]": {"test_system": "Candida albicans", "experiment": "Inhibition of biofilm formation in Candida albicans 0304103 at 8 ug/ml incubated for 24 hrs in presence of (Z)-8-(methoxyimino)-3-methylthieno[3',2':4,5]benzo[1,2-d]isoxazol-4(8H)-one by microplate based analysis relative to control", "assay_type": "functional"}, "Candida albicans [21]": {"test_system": "Candida albicans", "experiment": "Antifungal activity against Candida albicans 0304103 assessed as downregulation of TEC1 expression at 8 ug/ml incubated for 24 hrs in presence of (Z)-8-(methoxyimino)-3-methylthieno[3',2':4,5]benzo[1,2-d]isoxazol-4(8H)-one by RT-PCR analysis", "assay_type": "functional, organism-based", "conditions": "dose 8.0 µg/ml"}, "Candida albicans [22]": {"test_system": "Candida albicans", "experiment": "Antifungal activity against Candida albicans 0304103 assessed as downregulation of RLM1 expression at 8 ug/ml incubated for 24 hrs in presence of (Z)-8-(methoxyimino)-3-methylthieno[3',2':4,5]benzo[1,2-d]isoxazol-4(8H)-one by RT-PCR analysis", "assay_type": "functional, organism-based", "conditions": "dose 8.0 µg/ml"}, "Candida albicans [23]": {"test_system": "Candida albicans", "experiment": "Antifungal activity against Candida albicans 0304103 assessed as downregulation of APH5 expression at 8 ug/ml incubated for 24 hrs in presence of (Z)-8-(methoxyimino)-3-methylthieno[3',2':4,5]benzo[1,2-d]isoxazol-4(8H)-one by RT-PCR analysis", "assay_type": "functional, organism-based", "conditions": "dose 8.0 µg/ml"}, "Candida albicans [24]": {"test_system": "Candida albicans", "experiment": "Antifungal activity against Candida albicans 0304103 assessed as downregulation of GCA1 expression at 8 ug/ml incubated for 24 hrs in presence of (Z)-8-(methoxyimino)-3-methylthieno[3',2':4,5]benzo[1,2-d]isoxazol-4(8H)-one by RT-PCR analysis", "assay_type": "functional, organism-based", "conditions": "dose 8.0 µg/ml"}, "Candida albicans [25]": {"test_system": "Candida albicans", "experiment": "Antifungal activity against Candida albicans 0304103 assessed as downregulation of GCA2 expression at 8 ug/ml incubated for 24 hrs in presence of (Z)-8-(methoxyimino)-3-methylthieno[3',2':4,5]benzo[1,2-d]isoxazol-4(8H)-one by RT-PCR analysis", "assay_type": "functional, organism-based", "conditions": "dose 8.0 µg/ml"}, "Candida albicans [26]": {"test_system": "Candida albicans", "experiment": "Antifungal activity against Candida albicans 0304103 assessed as downregulation of CDR1 expression at 8 ug/ml incubated for 24 hrs in presence of (Z)-8-(methoxyimino)-3-methylthieno[3',2':4,5]benzo[1,2-d]isoxazol-4(8H)-one by RT-PCR analysis", "assay_type": "functional, organism-based", "conditions": "dose 8.0 µg/ml"}, "Candida albicans [27]": {"test_system": "Candida albicans", "experiment": "Antifungal activity against Candida albicans 0304103 assessed as downregulation of ERG11 expression at 8 ug/ml incubated for 24 hrs in presence of (Z)-8-(methoxyimino)-3-methylthieno[3',2':4,5]benzo[1,2-d]isoxazol-4(8H)-one by RT-PCR analysis", "assay_type": "functional, organism-based", "conditions": "dose 8.0 µg/ml"}, "Candida albicans [28]": {"test_system": "Candida albicans", "experiment": "Antifungal activity against Candida albicans 0304103 assessed as reversal of ERG11 expression by measuring fold change at 8 ug/ml incubated for 24 hrs in presence of (Z)-8-(methoxyimino)-3-methylthieno[3',2':4,5]benzo[1,2-d]isoxazol-4(8H)-one by RT-PCR analysis (reference value: 8.8)", "assay_type": "functional", "conditions": "dose 8 µg/ml"}, "Candida albicans [29]": {"test_system": "Candida albicans", "experiment": "In vivo antifungal activity against Candida albicans 0304103 infected in […] ICR mouse model assessed as reduction in fungal burden in kidney at 5 mg/kg, ip measured for 5 days in presence of (Z)-8-(methoxyimino)-3-methylthieno[3',2':4,5]benzo[1,2-d]isoxazol-4(8H)-one (reference value: 7.37 log10CFU/g)", "assay_type": "functional", "conditions": "time 5 day"}, "Candida albicans [30]": {"test_system": "Candida albicans", "experiment": "In vivo antifungal activity against Candida albicans SC5314 infected in […] ICR mouse model assessed as reduction in fungal burden in kidney at 0.5 mg/kg, ip measured for 5 days in presence of (Z)-8-(methoxyimino)-3-methylthieno[3',2':4,5]benzo[1,2-d]isoxazol-4(8H)-one", "assay_type": "functional", "conditions": "time 5 day"}},
  "note": "The source made the active and inactive calls. The calls are words filed in the database; no cut-off is given here.",
  "data": [
    {"molecule": "OC(Cn1cncn1)(Cn1cncn1)c1ccc(F)cc1F", "note": "[FLUCONAZOLE]", "values": [
      {"measurement": "MIC80", "setting": "Candida albicans [1]", "result": 0.5, "unit": "µg/mL"},
      {"measurement": "MIC80", "setting": "Candida albicans [2]", "result": "> 64", "unit": "µg/mL"},
      {"measurement": "MIC80", "setting": "Candida tropicalis", "result": "> 64", "unit": "µg/mL"},
      {"measurement": "MIC80", "setting": "Nakaseomyces glabratus", "result": 32, "unit": "µg/mL"},
      {"measurement": "MIC80", "setting": "Cryptococcus neoformans [3]", "result": 2, "unit": "µg/mL"},
      {"measurement": "MIC80", "setting": "Cryptococcus neoformans [4]", "result": 1, "unit": "µg/mL"},
      {"measurement": "MIC80", "setting": "[5]", "result": 1, "unit": "µg/mL"},
      {"measurement": "MIC80", "setting": "Candida albicans [6]", "result": 4, "unit": "µg/mL"},
      {"measurement": "MIC80", "setting": "Candida albicans [7]", "result": 1, "unit": "µg/mL"},
      {"measurement": "MIC80", "setting": "Candida albicans [8]", "result": 1, "unit": "µg/mL"},
      {"measurement": "MIC80", "setting": "Candida albicans [9]", "result": 2, "unit": "µg/mL"},
      {"measurement": "MIC80", "setting": "Candida albicans [10]", "result": 1, "unit": "µg/mL"},
      {"measurement": "MIC80", "setting": "Candida albicans [11]", "result": 8, "unit": "µg/mL"},
      {"measurement": "MIC80", "setting": "Candida albicans [12]", "result": "> 64", "unit": "µg/mL"},
      {"measurement": "MIC80", "setting": "Candida albicans [13]", "result": 1, "unit": "µg/mL"},
      {"measurement": "MIC80", "setting": "Candida albicans [14]", "result": 2, "unit": "µg/mL"},
      {"measurement": "MIC80", "setting": "Candida albicans [15]", "result": 1, "unit": "µg/mL"},
      {"measurement": "MIC80", "setting": "Candida albicans [16]", "result": 0.5, "unit": "µg/mL"},
      {"measurement": "MIC80", "setting": "Candida albicans [17]", "result": 2, "unit": "µg/mL"},
      {"measurement": "inhibition at 64 µg/mL", "setting": "Cryptococcus neoformans [18]", "result": 80, "unit": "%"},
      {"measurement": "inhibition", "setting": "Candida albicans [19]", "result": "inactive"},
      {"measurement": "inhibition at 8 µg/mL", "setting": "Candida albicans [20]", "result": 50, "unit": "%"},
      {"measurement": "Activity", "setting": "Candida albicans [21]", "result": "Active"},
      {"measurement": "Activity", "setting": "Candida albicans [22]", "result": "Active"},
      {"measurement": "Activity", "setting": "Candida albicans [23]", "result": "Active"},
      {"measurement": "Activity", "setting": "Candida albicans [24]", "result": "Active"},
      {"measurement": "Activity", "setting": "Candida albicans [25]", "result": "Active"},
      {"measurement": "Activity", "setting": "Candida albicans [26]", "result": "Active"},
      {"measurement": "Activity", "setting": "Candida albicans [27]", "result": "Active"},
      {"measurement": "fold change (FC)", "setting": "Candida albicans [28]", "result": 0.8},
      {"measurement": "Activity", "setting": "Candida albicans [29]", "result": 5.31, "unit": "log10CFU/g"},
      {"measurement": "Activity", "setting": "Candida albicans [30]", "result": 5.02, "unit": "log10CFU/g"}
    ]}
  ]
}
